Data taken from article PMC5218480 (PLoS ONE, 2017).

Tested on: MV-4-11 cells
Experiment: Gene expression microarray analysis (Affymetrix PrimeView) and GSEA
Type: cell-based, human
Set-up: RFU PODN (11730768_x_at) / Fold change /veh PODN (11730768_x_at) / RFU LINC00158 (11744669_a_at) / Fold change /veh LINC00158 (11744669_a_at) / RFU DUSP10 (11751237_a_at) / Fold change /veh DUSP10 (11751237_a_at) / RFU ID3 (11757404_x_at) / Fold change /veh ID3 (11757404_x_at) / RFU PLEKHG5 (11737974_s_at) / Fold change /veh PLEKHG5 (11737974_s_at) / RFU LRRC4B (11730491_at) / Fold change /veh LRRC4B (11730491_at) / RFU GIMAP4 (11747438_a_at) / Fold change /veh GIMAP4 (11747438_a_at) / RFU KRT8 (11758183_x_at) / Fold change /veh KRT8 (11758183_x_at) / RFU CNN1 (11734310_a_at) / Fold change /veh CNN1 (11734310_a_at) / RFU VPS37D (11726825_at) / Fold change /veh VPS37D (11726825_at) / RFU C10orf10 (11716522_x_at) / Fold change /veh C10orf10 (11716522_x_at) / RFU KIR2DL2 /// KIR2DL4 /// KIR2DL5A /// KIR2DL5B /// KIR2DS1 /// KIR2DS2 /// KIR2DS3 /// KIR2DS4 /// KIR3DL3 /// KIR3DL3 /// KIR3DS1 (11738374_at) / Fold change /veh KIR2DL2 /// KIR2DL4 /// KIR2DL5A /// KIR2DL5B /// KIR2DS1 /// KIR2DS2 /// KIR2DS3 /// KIR2DS4 /// KIR3DL3 /// KIR3DL3 /// KIR3DS1 (11738374_at) / RFU C1QL1 (11718748_at) / Fold change /veh C1QL1 (11718748_at) / RFU TMPRSS4 (11747572_a_at) / Fold change /veh TMPRSS4 (11747572_a_at) / RFU HAMP (11756126_x_at) / Fold change /veh HAMP (11756126_x_at) / RFU RNFT2 (11725882_a_at) / Fold change /veh RNFT2 (11725882_a_at) / RFU NR4A2 (11747474_a_at) / Fold change /veh NR4A2 (11747474_a_at) / RFU ABCC12 (11746883_a_at) / Fold change /veh ABCC12 (11746883_a_at) / RFU TMEM136 (11760407_x_at) / Fold change /veh TMEM136 (11760407_x_at) / RFU CLDN22 /// WWC2 (11732394_at) / Fold change /veh CLDN22 /// WWC2 (11732394_at) / RFU HLA-DPB1 (11760878_x_at) / Fold change /veh HLA-DPB1 (11760878_x_at) / RFU SPINT1 (11716480_a_at) / Fold change /veh SPINT1 (11716480_a_at) / RFU GAP43 (11754022_s_at) / Fold change /veh GAP43 (11754022_s_at) / RFU A4GNT (11735810_at) / Fold change /veh A4GNT (11735810_at) / RFU PRB3 (11715151_x_at) / Fold change /veh PRB3 (11715151_x_at) / RFU TUBB4B (11761932_at) / Fold change /veh TUBB4B (11761932_at) / RFU CAPN14 (11732068_a_at) / Fold change /veh CAPN14 (11732068_a_at) / RFU TMCC2 (11721928_a_at) / Fold change /veh TMCC2 (11721928_a_at) / RFU IRGQ (11745062_a_at) / Fold change /veh IRGQ (11745062_a_at) / RFU FAM174B (11720279_a_at) / Fold change /veh FAM174B (11720279_a_at) / RFU TMPRSS4 (11748680_a_at) / Fold change /veh TMPRSS4 (11748680_a_at) / RFU FAM212B (11763350_a_at) / Fold change /veh FAM212B (11763350_a_at) / RFU PLEKHG5 (11743358_a_at) / Fold change /veh PLEKHG5 (11743358_a_at) / RFU ZSCAN30 (11745921_a_at) / Fold change /veh ZSCAN30 (11745921_a_at) / RFU CMKLR1 (11741424_a_at) / Fold change /veh CMKLR1 (11741424_a_at) / RFU LOC101060620 /// MAPK8IP1 (11723275_at) / Fold change /veh LOC101060620 /// MAPK8IP1 (11723275_at) / RFU SPTSSB (11747773_x_at) / Fold change /veh SPTSSB (11747773_x_at) / RFU PRSS12 (11739890_at) / Fold change /veh PRSS12 (11739890_at) / RFU BIN1 (11741810_x_at) / Fold change /veh BIN1 (11741810_x_at) / RFU WNT11 (11732464_a_at) / Fold change /veh WNT11 (11732464_a_at) / RFU C10orf10 (11716521_a_at) / Fold change /veh C10orf10 (11716521_a_at) / RFU C5orf56 (11738089_at) / Fold change /veh C5orf56 (11738089_at) / RFU CYB561 (11721691_x_at) / Fold change /veh CYB561 (11721691_x_at) / RFU ANKRD19P (11752326_a_at) / Fold change /veh ANKRD19P (11752326_a_at) / RFU OR2T12 /// OR2T33 /// OR2T8 (11738714_s_at) / Fold change /veh OR2T12 /// OR2T33 /// OR2T8 (11738714_s_at) / RFU VCAN (11748164_a_at) / Fold change /veh VCAN (11748164_a_at) / RFU JSRP1 (11732532_at) / Fold change /veh JSRP1 (11732532_at) / RFU KRTAP10-11 (11738290_x_at) / Fold change /veh KRTAP10-11 (11738290_x_at) / RFU MYO3A (11730013_a_at) / Fold change /veh MYO3A (11730013_a_at) / RFU EBF3 (11725865_a_at) / Fold change /veh EBF3 (11725865_a_at) / RFU CAMK2N1 (11719241_x_at) / Fold change /veh CAMK2N1 (11719241_x_at) / RFU C5orf56 (11738088_a_at) / Fold change /veh C5orf56 (11738088_a_at) / RFU OLFML3 (11715873_a_at) / Fold change /veh OLFML3 (11715873_a_at) / RFU LOC100653217 /// NTM (11731650_a_at) / Fold change /veh LOC100653217 /// NTM (11731650_a_at) / RFU MAPK11 (11762145_a_at) / Fold change /veh MAPK11 (11762145_a_at) / RFU FIZ1 (11724087_x_at) / Fold change /veh FIZ1 (11724087_x_at) / RFU OASL (11726364_x_at) / Fold change /veh OASL (11726364_x_at) / RFU SOX15 (11748057_x_at) / Fold change /veh SOX15 (11748057_x_at) / RFU CD79A (11719716_a_at) / Fold change /veh CD79A (11719716_a_at) / RFU HIST1H1D (11736915_at) / Fold change /veh HIST1H1D (11736915_at) / RFU CASKIN2 (11723855_a_at) / Fold change /veh CASKIN2 (11723855_a_at) / RFU LOC730098 (11760151_x_at) / Fold change /veh LOC730098 (11760151_x_at) / RFU OR4N2 (11742367_at) / Fold change /veh OR4N2 (11742367_at) / RFU PRRT2 (11749266_a_at) / Fold change /veh PRRT2 (11749266_a_at) / RFU SNX32 (11753110_a_at) / Fold change /veh SNX32 (11753110_a_at) / RFU CDHR5 (11726645_a_at) / Fold change /veh CDHR5 (11726645_a_at) / RFU RCAN1 (11760418_a_at) / Fold change /veh RCAN1 (11760418_a_at) / RFU FAM167A (11723789_a_at) / Fold change /veh FAM167A (11723789_a_at) / RFU FAM26E (11764081_at) / Fold change /veh FAM26E (11764081_at) / RFU ISYNA1 (11749810_s_at) / Fold change /veh ISYNA1 (11749810_s_at) / RFU ACY1 (11761880_at) / Fold change /veh ACY1 (11761880_at) / RFU 11764098_at / Fold change /veh 11764098_at / RFU SAMD14 (11745864_x_at) / Fold change /veh SAMD14 (11745864_x_at) / RFU NPB (11741838_a_at) / Fold change /veh NPB (11741838_a_at) / RFU TMPRSS6 (11731388_a_at) / Fold change /veh TMPRSS6 (11731388_a_at) / RFU KRTAP10-2 (11738614_at) / Fold change /veh KRTAP10-2 (11738614_at) / RFU ARHGAP8 /// PRR5-ARHGAP8 (11727945_x_at) / Fold change /veh ARHGAP8 /// PRR5-ARHGAP8 (11727945_x_at) / RFU KRTAP5-7 /// NADSYN1 (11734609_at) / Fold change /veh KRTAP5-7 /// NADSYN1 (11734609_at) / RFU RASL12 (11751679_a_at) / Fold change /veh RASL12 (11751679_a_at) / RFU CDKN2B (11736163_a_at) / Fold change /veh CDKN2B (11736163_a_at) / RFU PRF1 (11729649_at) / Fold change /veh PRF1 (11729649_at) / RFU, ZNF638 /// ZNF638-IT1 / Fold change vs veh, ZNF638 /// ZNF638-IT1 / RFU, PANK3 / Fold change vs veh, PANK3 / RFU, SH3YL1 / Fold change vs veh, SH3YL1 / RFU, ZEB2 / Fold change vs veh, ZEB2 / RFU, NRIP1 / Fold change vs veh, NRIP1 / RFU, PTTG1IP / Fold change vs veh, PTTG1IP / RFU, CAPN2 / Fold change vs veh, CAPN2 / RFU, MED14 / Fold change vs veh, MED14 / RFU, SNORA58 / Fold change vs veh, SNORA58 / RFU, C1orf63 / Fold change vs veh, C1orf63 / RFU, LRRFIP1 / Fold change vs veh, LRRFIP1 / RFU, NDUFAF7 / Fold change vs veh, NDUFAF7 / RFU, SLC12A2 / Fold change vs veh, SLC12A2 / RFU, IBTK / Fold change vs veh, IBTK / RFU, ESF1 / Fold change vs veh, ESF1 / Fold change vs veh, TMEM50B / RFU, TAOK1 / Fold change vs veh, TAOK1 / RFU, ACBD3 / Fold change vs veh, ACBD3 / RFU, TMA16 / Fold change vs veh, TMA16 / RFU, RWDD3 / Fold change vs veh, RWDD3 / RFU, BCAT1 / Fold change vs veh, BCAT1 / RFU, EDEM3 / Fold change vs veh, EDEM3 / RFU, TMEM33 / Fold change vs veh, TMEM33 / RFU, WDR75 / Fold change vs veh, WDR75 / RFU, AHCTF1 / Fold change vs veh, AHCTF1 / RFU, TFRC / Fold change vs veh, TFRC / RFU, ZDHHC17 / Fold change vs veh, ZDHHC17 / RFU, NOM1 / Fold change vs veh, NOM1 / RFU, ARL8B / Fold change vs veh, ARL8B / RFU, ZBTB11 / Fold change vs veh, ZBTB11 / RFU, TAMM41 / Fold change vs veh, TAMM41 / RFU, KIAA1704 /// LOC100996395 / Fold change vs veh, KIAA1704 /// LOC100996395 / RFU, ING1 / Fold change vs veh, ING1 / RFU, TRMT61B / Fold change vs veh, TRMT61B / RFU, FUBP3 / Fold change vs veh, FUBP3 / RFU, TP53 / Fold change vs veh, TP53 / RFU, TNKS2 / Fold change vs veh, TNKS2 / RFU, ZFP14 / Fold change vs veh, ZFP14 / RFU, ACTR2 / Fold change vs veh, ACTR2 / RFU, PPP3R1 / Fold change vs veh, PPP3R1 / RFU, PIK3R1 / Fold change vs veh, PIK3R1 / RFU, HNRNPA1 / Fold change vs veh, HNRNPA1 / RFU, RNF170 / Fold change vs veh, RNF170 / RFU, ZNF28 / Fold change vs veh, ZNF28 / RFU, RNGTT / Fold change vs veh, RNGTT / RFU, OGT / Fold change vs veh, OGT / RFU, BRD1 / Fold change vs veh, BRD1 / RFU, MARS / Fold change vs veh, MARS / RFU, ZNF655 / Fold change vs veh, ZNF655 / RFU, FAHD1 / Fold change vs veh, FAHD1 / RFU, BDP1 / Fold change vs veh, BDP1 / RFU, LRRCC1 / Fold change vs veh, LRRCC1 / RFU, ARID1A / Fold change vs veh, ARID1A / RFU, ZNF146 / Fold change vs veh, ZNF146 / RFU, ZNF330 / Fold change vs veh, ZNF330 / RFU, GPN3 / Fold change vs veh, GPN3 / RFU, C9orf123 / Fold change vs veh, C9orf123 / RFU, N4BP2L2 / Fold change vs veh, N4BP2L2 / RFU, ARFIP1 / Fold change vs veh, ARFIP1 / RFU, FAM179B / Fold change vs veh, FAM179B / RFU, BCL10 / Fold change vs veh, BCL10 / RFU, UHRF1BP1L / Fold change vs veh, UHRF1BP1L / RFU, BET1 / Fold change vs veh, BET1 / RFU, CNOT2 / Fold change vs veh, CNOT2 / RFU, ZNF268 / Fold change vs veh, ZNF268 / Fold change vs veh, ZNF507 / RFU, DGCR2 / Fold change vs veh, DGCR2 / RFU, WDSUB1 / Fold change vs veh, WDSUB1 / Fold change vs veh, HSP90B1 /// MIR3652 / RFU, ADSS / Fold change vs veh, ADSS / RFU, GK / Fold change vs veh, GK / RFU, ZNF148 / Fold change vs veh, ZNF148 / RFU, TAF9 / Fold change vs veh, TAF9 / RFU, SLC1A5 / Fold change vs veh, SLC1A5 / RFU, SLMO2 / Fold change vs veh, SLMO2 / RFU, ABCC4 / Fold change vs veh, ABCC4 / RFU, LOC101060439 /// RAP1B / Fold change vs veh, LOC101060439 /// RAP1B / RFU, RFX7 / Fold change vs veh, RFX7 / RFU, GTPBP10 / Fold change vs veh, GTPBP10 / RFU, CNEP1R1 / Fold change vs veh, CNEP1R1 / RFU, BIVM-ERCC5 /// ERCC5 / Fold change vs veh, BIVM-ERCC5 /// ERCC5 / RFU, ILF3 / Fold change vs veh, ILF3 / RFU 11762660_at / Fold change /veh 11762660_at / RFU VCAN (11757783_s_at) / Fold change /veh VCAN (11757783_s_at) / RFU DDX43 (11728927_at) / Fold change /veh DDX43 (11728927_at) / RFU KRT8 (11758188_x_at) / Fold change /veh KRT8 (11758188_x_at) / RFU NKD1 (11759106_at) / Fold change /veh NKD1 (11759106_at) / RFU SRD5A1 (11742802_a_at) / Fold change /veh SRD5A1 (11742802_a_at) / RFU TPSAB1 /// TPSB2 (11721975_s_at) / Fold change /veh TPSAB1 /// TPSB2 (11721975_s_at) / RFU GSTM3 (11746129_a_at) / Fold change /veh GSTM3 (11746129_a_at) / RFU IL23R (11737362_x_at) / Fold change /veh IL23R (11737362_x_at) / RFU TMEM51 (11727254_a_at) / Fold change /veh TMEM51 (11727254_a_at) / RFU PIWIL2 (11732686_x_at) / Fold change /veh PIWIL2 (11732686_x_at) / RFU ORM1 (11744905_x_at) / Fold change /veh ORM1 (11744905_x_at) / RFU CCDC152 (11743942_at) / Fold change /veh CCDC152 (11743942_at) / RFU ECM1 (11717891_a_at) / Fold change /veh ECM1 (11717891_a_at) / RFU IL23R (11748794_a_at) / Fold change /veh IL23R (11748794_a_at) / RFU TNFAIP8L3 (11732012_x_at) / Fold change /veh TNFAIP8L3 (11732012_x_at) / RFU MBOAT4 (11741988_at) / Fold change /veh MBOAT4 (11741988_at) / RFU 11764193_at / Fold change /veh 11764193_at / RFU TMEM53 (11763286_at) / Fold change /veh TMEM53 (11763286_at) / RFU MAGEB2 (11727129_at) / Fold change /veh MAGEB2 (11727129_at) / RFU TMEM200A (11744735_a_at) / Fold change /veh TMEM200A (11744735_a_at) / RFU CCDC152 (11751479_a_at) / Fold change /veh CCDC152 (11751479_a_at) / RFU FAM211A (11726209_a_at) / Fold change /veh FAM211A (11726209_a_at) / RFU RGS16 (11746705_a_at) / Fold change /veh RGS16 (11746705_a_at) / RFU VCAN (11755009_s_at) / Fold change /veh VCAN (11755009_s_at) / RFU RHOB (11743442_s_at) / Fold change /veh RHOB (11743442_s_at) / RFU RGS16 (11720943_a_at) / Fold change /veh RGS16 (11720943_a_at) / RFU RGS16 (11720944_at) / Fold change /veh RGS16 (11720944_at) / RFU, VPS4B / Fold change vs veh, VPS4B / RFU, CREB1 / Fold change vs veh, CREB1 / RFU, DNAJC13 / Fold change vs veh, DNAJC13 / RFU, GNAQ / Fold change vs veh, GNAQ / RFU, CDK5R1 / Fold change vs veh, CDK5R1 / RFU, ZRANB3 / Fold change vs veh, ZRANB3 / RFU, CUL4A / Fold change vs veh, CUL4A / RFU, CCNY / Fold change vs veh, CCNY / RFU, UFL1 / Fold change vs veh, UFL1 / RFU, COG3 / Fold change vs veh, COG3 / RFU, DIAPH2 / Fold change vs veh, DIAPH2 / RFU, SKA2 / Fold change vs veh, SKA2 / RFU, AFF3 / Fold change vs veh, AFF3 / RFU, LMF1 / Fold change vs veh, LMF1 / RFU, IPO11 / Fold change vs veh, IPO11 / RFU, DFFB / Fold change vs veh, DFFB / RFU, FOXP1 / Fold change vs veh, FOXP1 / RFU, CARD8 / Fold change vs veh, CARD8 / RFU, STRN3 / Fold change vs veh, STRN3 / RFU, ADK / Fold change vs veh, ADK / RFU, RASSF2 / Fold change vs veh, RASSF2 / RFU, WIPF1 / Fold change vs veh, WIPF1 / RFU, LARP1B / Fold change vs veh, LARP1B / RFU, RASA1 / Fold change vs veh, RASA1 / RFU, RB1 / Fold change vs veh, RB1 / RFU, PPFIA1 / Fold change vs veh, PPFIA1 / RFU, MAT2A / Fold change vs veh, MAT2A / RFU, CCT5 / Fold change vs veh, CCT5 / RFU, WDR92 / Fold change vs veh, WDR92 / RFU, CUX1 / Fold change vs veh, CUX1 / RFU, TTC7A / Fold change vs veh, TTC7A / RFU, TMEM135 / Fold change vs veh, TMEM135 / RFU, DEPTOR / Fold change vs veh, DEPTOR / RFU, CPM / Fold change vs veh, CPM / RFU, DNAJB6 / Fold change vs veh, DNAJB6 / RFU, CACNA2D3 / Fold change vs veh, CACNA2D3 / RFU, DTX4 / Fold change vs veh, DTX4 / RFU, TFCP2 / Fold change vs veh, TFCP2 / RFU, GMCL1 /// GMCL1P1 / Fold change vs veh, GMCL1 /// GMCL1P1 / RFU, AEBP2 / Fold change vs veh, AEBP2 / RFU, SNHG1 /// SNORD22 /// SNORD25 /// SNORD26 /// SNORD27 /// SNORD28 /// SNORD29 /// SNORD31 / Fold change vs veh, SNHG1 /// SNORD22 /// SNORD25 /// SNORD26 /// SNORD27 /// SNORD28 /// SNORD29 /// SNORD31 / Fold change (Aza/veh), C12orf56 (ProbeSet 11735607_a_at) / Fold change (ACY-1035/veh), C12orf56 (ProbeSet 11735607_a_at) / Fold change (Aza/veh), FGFR1OP (ProbeSet 11751329_s_at) / Fold change (ACY-1035/veh), FGFR1OP (ProbeSet 11751329_s_at) / Fold change (Aza/veh), VPS36 (ProbeSet 11739960_a_at) / Fold change (ACY-1035/veh), VPS36 (ProbeSet 11739960_a_at) / RFU SYPL1 (11715823_x_at) / Fold change /veh SYPL1 (11715823_x_at) / RFU IGFBP7 (11715501_s_at) / Fold change /veh IGFBP7 (11715501_s_at) / RFU REEP3 (11722064_at) / Fold change /veh REEP3 (11722064_at) / RFU IGLL1 (11728026_x_at) / Fold change /veh IGLL1 (11728026_x_at): dose or concentration left out as unconfirmed
Settings: ProbeSet 11749645_x_at; LIST B

For `Nc1ncn([C@@H]2O[C@H](CO)[C@@H](O)[C@H]2O)c(=O)n1` [azacitidine], which “RFU, ZNF268” value is on record?
The value was 156.52 RFU.
